In patent publication US7056679B2, “Target specific screening and its use for identifying target binders” (Antyra, Inc., priority 2001, dated 2006):

Legend:
E-tag antibody = assay: ELISA analysis of phage on antibody raised against ETAG (positive control); details: peptide binding to E-tag antibody; phage ELISA units read at 405 nm
Experimental: (§1) For analysis of individual target binders, colonies were picked and phage prepared as described above using helper phage, M13KO7. Ninety-six-well microtiter plates were coated with 500 ng/well of specific target protein, 500 ng/well lactate dehydrogenase (LDH) irrelevant or non-specific target, 500 ng/well of positive control antibody raised against ETAG, and negative control of non-fat milk powder-PBS 2% at 4° C. overnight. Plates were then blocked with 350 microliters/well PBS containing 2% non-fat milk for 1 hr at room temperature. One hundred microliters per well of phage from isolated clones were added and plates were incubated at room temperature for 2 hr after centrifuging samples for 20 minutes at 3500 rpm at 4° C. The phage solution was then removed, and the wells were washed three times with PBS at room temperature. Antibody raised against M13 conjugated to horseradish peroxidase (Pharmacia) was diluted 1:3000 in PBS-Tween and added to each well (100 μl/well). Incubation was for 1 hr at room temperature, followed by washing with PBS-(0.5%) Tween 3 times as described. Color was developed by addition of ABTS solution (100 μl/well; Boehringer, Indianapolis, Ind.). Plates were analyzed at 405 nm. A clone was considered “positive” if the A405 of the well was ≧2-fold over background.

[1] = test system: lactate dehydrogenase (LDH); assay: ELISA analysis of phage on LDH (irrelevant, non-specific target); assay type: binding; details: for LDH (OD): peptide binding to LDH polypeptide (non-specific binding), phage ELISA units read at 405 nm; for LDH: DGI-9 binders, LDH control irrelevant protein, ratio over background
Experimental: as §1

DGI-2 = biological target: T1, DGI-2 (Homo sapiens, UniProt Q15004); assay: ELISA analysis of phage on DGI-2 polypeptide (specific binding); details: for DGI-2 (OD): binding to DGI-2 polypeptide (specific binding), phage ELISA units read at 405 nm; for DGI-2/LDH (OD): ratio of specific binding to non-specific binding
T1 construct: encompassed the entire DGI-2 open reading frame (ORF); His-tag of vector pIVEX2.3-MCS (inferred from the vector and from the reverse primer lacking a stop codon); made in house; host or cells: cell-free in vitro translation (Rapid Translation System RTS, Roche; E. coli lysate)
T1 sequence (Q15004 1-111): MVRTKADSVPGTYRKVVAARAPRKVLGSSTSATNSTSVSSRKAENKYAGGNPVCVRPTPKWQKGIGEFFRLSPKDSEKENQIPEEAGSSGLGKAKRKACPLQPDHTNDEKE
Experimental: To verify that the selected target binders bound to DGI-2, Elisa assays were performed with recombinant DGI-2. DGI-2 was subcloned and expressed using conventional methods as described below.
Protein yields were satisfactory, but most of protein was found in inclusion bodies. Next, DGI-2 was expressed using an in vitro translation system (Rapid Translation System RTS 5000, Roche Diagnostics GmbH, Mannheim Germany). For this system, the DGI-2 ORF was cloned into the pIVEX2.3-MCS vector (Roche Diagnostics) using restriction sites Nde I and Hind III, which were added to DGI-2 by PCR. […] The primers used for the PCR amplification were as follows: […]
as §1

| Substance | ETAG (OD) (E-tag antibody) | LDH (OD) [1] [OD] | DGI-2 (OD) (DGI-2) | DGI-2/LDH (OD) (DGI-2) | LDH [1] |
| --- | --- | --- | --- | --- | --- |
| TSCQVMFLAGQHLLSRVPRL (DGI-2-20R-3-B6; listed as Escherichia coli) [DGL-2-20R-3-B6] | 11.7 | 1.0 | 2.8 | 2.7 |  |
| VRAVYSRDAYNEVGRWMRVGI (DGI-2-20F-PP-D9; listed as Escherichia coli) | 9.0 | 1.0 | 2.9 | 2.9 |  |
| WEVGQVEKFSRGVGGWWPTG [DGI-2-20R-3-D3] | 16.8 | 1.0 | 8.3 | 8.3 |  |
| LTWGPQFGSLQVYSRHRGLP (DGI-2-20R-4-E4; listed as Escherichia coli) | 18.1 | 1.2 | 1.6 | 1.3 |  |
| DYKTCVSQHVHPLFGEYFYHKVTHMSILSPTFRVTSLYG.K (DYKTCVSQHVHPLFGEYFYHKVTHMSILSPTFRVTSLYGK; DGI-2-40F-3-B95; listed as Escherichia coli) | 5.4 | 0.8 | 1.0 | 1.2 |  |
| TPDRCLIYSSIQCLLEYSARRGSAD (DGI-2-20C-3-C65; listed as Escherichia coli) | 7.4 | 1.0 | 1.8 | 1.8 |  |
| VAFGEQJRVAMAGTLWQRWR (VAFGEQIRVAMAGTLWQRWR; not fully specified; non-natural residue J; DGI-2-20R-3-D5; listed as Escherichia coli) | 8.5 | 1.1 | 1.5 | 1.4 |  |
| MAVLPAARDFGGVVQGGVSG (DGI-2-20F-3-C2; listed as Escherichia coli) | 11.5 | 1.0 | 1.3 | 1.3 |  |
| MGVVLECEGGWSIPGQTCYF (DGI-2-20R-3-C7; listed as Escherichia coli) | 18.0 | 1.0 | 5.1 | 5.1 |  |
| YDQVWNSLLAAVLGGQELVN (DGI-2-20F-3-D112; listed as Escherichia coli) | 19.9 | 1.0 | 1.4 | 1.4 |  |
| LWLPCGLLVRPAQFYFYFSPLRHFLSSSVGSLSFPLSLLV (DGI-2-40F-3-B4; listed as Escherichia coli) | 1.5 | 0.8 | 1.0 | 1.1 |  |
| GLLFTSSPYQCFWVHCTLTMSPLSVLGDLSSTIGRMRASR (DGI-2-40F-3-C52; listed as Escherichia coli) | 4.6 | 0.8 | 1.0 | 1.3 |  |
| RRFVRCSVPVALRSAVPVSV (DGI-2-20F-PP-A10; listed as Escherichia coli) | 16.3 | 1.0 | 2.4 | 2.4 |  |
| RRTSADTDQLSRWEGAQAFSSLRSALSERLDSLRPGLPPS (DGI-2-40F-3-D9; listed as Escherichia coli) | 15.8 | 0.8 | 1.1 | 1.4 |  |
| QMSRVAFSPGESWRRWVEGV (DGI-2-20R-3-A2; listed as Escherichia coli) | 14.2 | 1.0 | 7.5 | 7.5 |  |
| RSQVRVVSRERSTPVLIHIRIECLLFSGWCVTSGSDEGVVWG [DGI-2-40F-4-F122] | 8.1 | 0.8 | 4.7 | 5.7 |  |

| Substance | ETAG (OD) (E-tag antibody) | LDH (OD) [1] [OD] | DGI-2 (OD) (DGI-2) | DGI-2/LDH (OD) (DGI-2) | LDH [1] |
| --- | --- | --- | --- | --- | --- |
| RSRSSSGASGSMLRVQNHMVLGSWMVRQPMGSMTPFHGHG (DGI-2-40F-3-B5; listed as Escherichia coli) | 9.2 | 0.9 | 1.0 | 1.2 |  |
| LVIGQRSFLSACSLFDGFCV (DGI-2-20R-4-H814; listed as Escherichia coli) | 13.5 | 1.1 | 9.5 | 9.0 |  |
| RNWLDKDCVWMGDCGARAGE (DGI-2-20F-4-E3; listed as Escherichia coli) | 16.9 | 0.9 | 3.8 | 4.1 |  |
| RDHRYVGWGRATFRHDQSVW (DGI-2-20F-PP-H1; listed as Escherichia coli) | 1.4 | 1.2 | 1.7 | 1.4 |  |
| TPVAISIPAGVCSTSVCGRD (DGI-2-20F-PP-C11; listed as Escherichia coli) | 3.2 | 0.9 | 2.4 | 2.6 |  |
| MGADTCMGGKMPFDQMFGAV (DGI-2-20F-PP-E10; listed as Escherichia coli) | 44.6 | 1.2 | 2.0 | 1.7 |  |
| GGDLGEQGVQLCPDVVRGGSL (DGI-2-20F-PP-A7; listed as Escherichia coli) | 42.2 | 0.9 | 2.6 | 2.8 |  |
| LPQSRWLSEAWASWVDGVVD (DGI-2-20F-4-F9; listed as Escherichia coli) | 19.6 | 1.0 | 5.6 | 5.9 |  |
| PVYRVAMCRISVGCSAGAWF (DGI-2-20F-PP-C12; listed as Escherichia coli) | 36.4 | 0.9 | 2.5 | 2.9 |  |
| DRVARLATPTAGTMAAGSLGYERTVGCDSQDWFRCVVEGL (DGI-2-40F-3-D1044; listed as Escherichia coli) | 17.7 | 1.3 | 7.9 | 6.2 |  |
| VSFAHDWGRWWYQWEVG (DGI-2-20R-4-G22; listed as Escherichia coli) | 12.9 | 1.2 | 7.9 | 6.5 |  |
| SRLALSSQHGLSLVAGRRRG [DGI9-20M-4-A12] |  |  |  |  | 0.9 |
| WDWSRFGAQLRGAILGRATG [DGI9-20M-4-A627] |  |  |  |  | 0.9 |
| MAGFRGSGLSGYSEARLPRV [DGI9-20M-4-E3] |  |  |  |  | 1.0 |
| FLLQDFIMDAGSFVKPIGVG [DGI9-20M-4-A414] |  |  |  |  | 1.1 |
